Data from PubChem BioAssay AID330 (DTP/NCI, 2004).
Toxic doses and inconclusive results are not listed. The calls were made as follows: active = survival T/C of 150% or more; inactive = T/C below 125% in these data.

Tested on: P388 leukemia ip, CD2F1 mice, survival T/C
Assay: NCI In Vivo Anticancer Drug Screen. Data for tumor model P388 Leukemia (intraperitoneal) in CD2F1 (CDF1) mice
Conditions: endpoint: median survival time, higher = longer survival
In short: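 Mice carrying the transplanted tumor received test compound or vehicle. Survival was recorded in each group, and the value is the treated-group measurement divided by that of the vehicle-treated control group.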

[1] = dose: 50.0 mg/kg/injection, schedule: Q01DX009 (ip), vehicle: Klucel (hydroxypropylcellulose) (HPC)
[2] = dose: 100.0 mg/kg/injection, schedule: Q01DX009 (ip), vehicle: Klucel (hydroxypropylcellulose) (HPC)
[3] = dose: 200.0 mg/kg/injection, schedule: Q01DX009 (ip), vehicle: Klucel (hydroxypropylcellulose) (HPC)
[4] = dose: 25.0 mg/kg/injection, schedule: Q01DX009 (ip), vehicle: saline
[5] = dose: 50.0 mg/kg/injection, schedule: Q01DX009 (ip), vehicle: saline with Tween-80
[6] = dose: 50.0 mg/kg/injection, schedule: Q01DX009 (ip), vehicle: saline
[7] = dose: 50.0 mg/kg/injection, schedule: Q01DX005 (ip), vehicle: saline with Tween-80
[8] = dose: 100.0 mg/kg/injection, schedule: Q01DX005 (ip), vehicle: saline with Tween-80
[9] = dose: 200.0 mg/kg/injection, schedule: Q01DX005 (ip), vehicle: saline with Tween-80

Measured: T/C

O=C(c1ccccc1)C12CCC3CC(CC(C3)C1)C2
inactive: [1] 100 % of control | [2] 99 % of control | [3] 100 % of control

CCCCSc1n[nH]c(C2CCC(=O)N2Cc2ccccc2)n1 (stereo not given)
inactive: dose: 60.0 mg/kg/injection, schedule: Q01DX005 (ip), vehicle: saline with Tween-80 100 % of control | dose: 120.0 mg/kg/injection, schedule: Q01DX005 (ip), vehicle: saline with Tween-80 93 % of control | dose: 240.0 mg/kg/injection, schedule: Q01DX005 (ip), vehicle: saline with Tween-80 91 % of control

O=c1oc2cc(N=Cc3ccccc3Cl)ccc2c2ccccc12
inactive: dose: 6.25 mg/kg/injection, schedule: Q01DX009 (ip), vehicle: saline 90 % of control | dose: 12.5 mg/kg/injection, schedule: Q01DX009 (ip), vehicle: saline 90 % of control | [4] 91 % of control | [5] 98 % of control | [6] 91 % of control | dose: 100.0 mg/kg/injection, schedule: Q01DX009 (ip), vehicle: saline with Tween-80 114 % of control | dose: 200.0 mg/kg/injection, schedule: Q01DX009 (ip), vehicle: saline with Tween-80 113 % of control | dose: 400.0 mg/kg/injection, schedule: Q01DX009 (ip), vehicle: saline with Tween-80 87 % of control

COc1cc(NC(C)CCCN)c2ncccc2c1Oc1ccc(Cl)cc1 (stereo not given)
inactive: dose: 12.5 mg/kg/injection, schedule: Q01DX009 (ip), vehicle: saline with Tween-80 91 % of control | dose: 25.0 mg/kg/injection, schedule: Q01DX009 (ip), vehicle: saline with Tween-80 90 % of control | [5] 94 % of control

COCC(=O)Nc1ncc([N+](=O)[O-])s1
inactive: [1] 102 % of control | [2] 100 % of control | [3] 94 % of control

c1ccc(C2=N[C@@H](N3CCCCC3)[C@H](N3CCCCC3)N2c2ccccc2)cc1
inactive: dose: 50.0 mg/kg/injection, schedule: Q01DX005 (ip), vehicle: Klucel (hydroxypropylcellulose) (HPC) 105 % of control | dose: 100.0 mg/kg/injection, schedule: Q01DX005 (ip), vehicle: Klucel (hydroxypropylcellulose) (HPC) 100 % of control | dose: 200.0 mg/kg/injection, schedule: Q01DX005 (ip), vehicle: Klucel (hydroxypropylcellulose) (HPC) 98 % of control

CCN(Cc1cccc(S(=O)(=O)[O-])c1)c1ccc(C(=C2C=CC(=[N+](CC)Cc3cccc(S(=O)(=O)O)c3)C=C2)c2ccccc2S(=O)(=O)O)cc1
inactive: dose: 50.0 mg/kg/injection, schedule: Q01DX005 (ip), vehicle: saline 104 % of control | dose: 100.0 mg/kg/injection, schedule: Q01DX005 (ip), vehicle: saline 96 % of control | dose: 200.0 mg/kg/injection, schedule: Q01DX005 (ip), vehicle: saline 96 % of control

O=S(=O)(Nc1nccs1)c1ccc(NCc2c3ccccc3nc3cc(Cl)ccc23)cc1
inactive: [7] 88 % of control | [8] 88 % of control | [9] 97 % of control

CCOC(=O)NC(=Nc1cccc(C(=O)c2ccc3nc(NC(=O)OCC)[nH]c3c2)c1)NC(=O)OCC
inactive: dose: 15.0 mg/kg/injection, schedule: Q01DX005 (ip), vehicle: saline with Tween-80 89 % of control | dose: 30.0 mg/kg/injection, schedule: Q01DX005 (ip), vehicle: saline with Tween-80 94 % of control

COC(=O)/C(C(C)=O)=C1\C(=O)OCC1(C)C
inactive: dose: 100.0 mg/kg/injection, schedule: Q04DX003 (ip), vehicle: saline 102 % of control | dose: 200.0 mg/kg/injection, schedule: Q04DX003 (ip), vehicle: saline 105 % of control | dose: 400.0 mg/kg/injection, schedule: Q04DX003 (ip), vehicle: saline 100 % of control

COc1cc(CCN)ccc1OCc1ccccc1
inactive: [4] 107 % of control | [6] 104 % of control | dose: 100.0 mg/kg/injection, schedule: Q01DX009 (ip), vehicle: saline 110 % of control

O=S1(=O)C2C=CC1C(Br)C(Br)CC2 (stereo not given)
inactive: dose: 12.5 mg/kg/injection, schedule: Q01DX009 (ip), vehicle: Klucel (hydroxypropylcellulose) (HPC) 102 % of control | dose: 25.0 mg/kg/injection, schedule: Q01DX009 (ip), vehicle: Klucel (hydroxypropylcellulose) (HPC) 100 % of control | [1] 89 % of control | [2] 96 % of control | [3] 98 % of control

CC(C)COC(=O)NC1c2ccccc2Oc2ccccc21
inactive: [7] 95 % of control | [8] 93 % of control | [9] 89 % of control
